# Patent publication US8765677B2 (priority 2009, dated 2014)
# Values joined by “and” are separate entries in the source; they are usually repeats but may differ in a detail not shown here. Equal entries are not always repeated. Where a SMILES comes first, the peptide text is derived from it.
# Legend:
# [1] = target: recombinant Cav1.2 α1C (L-type) channels (α/α2δ1/β3) (Oryctolagus cuniculus, UniProt P15381); type: cell-based, rabbit
# [2] = target: recombinant N-type (Cav2.2) VGCCs α1B-b/α2δ1/β3 (Rattus norvegicus, UniProt Q02294); experiment: cell-based; type: cell-based
# Chain of recombinant N-type (Cav2.2) VGCCs α1B-b/α2δ1/β3 (Q02294 whole entry, looked up): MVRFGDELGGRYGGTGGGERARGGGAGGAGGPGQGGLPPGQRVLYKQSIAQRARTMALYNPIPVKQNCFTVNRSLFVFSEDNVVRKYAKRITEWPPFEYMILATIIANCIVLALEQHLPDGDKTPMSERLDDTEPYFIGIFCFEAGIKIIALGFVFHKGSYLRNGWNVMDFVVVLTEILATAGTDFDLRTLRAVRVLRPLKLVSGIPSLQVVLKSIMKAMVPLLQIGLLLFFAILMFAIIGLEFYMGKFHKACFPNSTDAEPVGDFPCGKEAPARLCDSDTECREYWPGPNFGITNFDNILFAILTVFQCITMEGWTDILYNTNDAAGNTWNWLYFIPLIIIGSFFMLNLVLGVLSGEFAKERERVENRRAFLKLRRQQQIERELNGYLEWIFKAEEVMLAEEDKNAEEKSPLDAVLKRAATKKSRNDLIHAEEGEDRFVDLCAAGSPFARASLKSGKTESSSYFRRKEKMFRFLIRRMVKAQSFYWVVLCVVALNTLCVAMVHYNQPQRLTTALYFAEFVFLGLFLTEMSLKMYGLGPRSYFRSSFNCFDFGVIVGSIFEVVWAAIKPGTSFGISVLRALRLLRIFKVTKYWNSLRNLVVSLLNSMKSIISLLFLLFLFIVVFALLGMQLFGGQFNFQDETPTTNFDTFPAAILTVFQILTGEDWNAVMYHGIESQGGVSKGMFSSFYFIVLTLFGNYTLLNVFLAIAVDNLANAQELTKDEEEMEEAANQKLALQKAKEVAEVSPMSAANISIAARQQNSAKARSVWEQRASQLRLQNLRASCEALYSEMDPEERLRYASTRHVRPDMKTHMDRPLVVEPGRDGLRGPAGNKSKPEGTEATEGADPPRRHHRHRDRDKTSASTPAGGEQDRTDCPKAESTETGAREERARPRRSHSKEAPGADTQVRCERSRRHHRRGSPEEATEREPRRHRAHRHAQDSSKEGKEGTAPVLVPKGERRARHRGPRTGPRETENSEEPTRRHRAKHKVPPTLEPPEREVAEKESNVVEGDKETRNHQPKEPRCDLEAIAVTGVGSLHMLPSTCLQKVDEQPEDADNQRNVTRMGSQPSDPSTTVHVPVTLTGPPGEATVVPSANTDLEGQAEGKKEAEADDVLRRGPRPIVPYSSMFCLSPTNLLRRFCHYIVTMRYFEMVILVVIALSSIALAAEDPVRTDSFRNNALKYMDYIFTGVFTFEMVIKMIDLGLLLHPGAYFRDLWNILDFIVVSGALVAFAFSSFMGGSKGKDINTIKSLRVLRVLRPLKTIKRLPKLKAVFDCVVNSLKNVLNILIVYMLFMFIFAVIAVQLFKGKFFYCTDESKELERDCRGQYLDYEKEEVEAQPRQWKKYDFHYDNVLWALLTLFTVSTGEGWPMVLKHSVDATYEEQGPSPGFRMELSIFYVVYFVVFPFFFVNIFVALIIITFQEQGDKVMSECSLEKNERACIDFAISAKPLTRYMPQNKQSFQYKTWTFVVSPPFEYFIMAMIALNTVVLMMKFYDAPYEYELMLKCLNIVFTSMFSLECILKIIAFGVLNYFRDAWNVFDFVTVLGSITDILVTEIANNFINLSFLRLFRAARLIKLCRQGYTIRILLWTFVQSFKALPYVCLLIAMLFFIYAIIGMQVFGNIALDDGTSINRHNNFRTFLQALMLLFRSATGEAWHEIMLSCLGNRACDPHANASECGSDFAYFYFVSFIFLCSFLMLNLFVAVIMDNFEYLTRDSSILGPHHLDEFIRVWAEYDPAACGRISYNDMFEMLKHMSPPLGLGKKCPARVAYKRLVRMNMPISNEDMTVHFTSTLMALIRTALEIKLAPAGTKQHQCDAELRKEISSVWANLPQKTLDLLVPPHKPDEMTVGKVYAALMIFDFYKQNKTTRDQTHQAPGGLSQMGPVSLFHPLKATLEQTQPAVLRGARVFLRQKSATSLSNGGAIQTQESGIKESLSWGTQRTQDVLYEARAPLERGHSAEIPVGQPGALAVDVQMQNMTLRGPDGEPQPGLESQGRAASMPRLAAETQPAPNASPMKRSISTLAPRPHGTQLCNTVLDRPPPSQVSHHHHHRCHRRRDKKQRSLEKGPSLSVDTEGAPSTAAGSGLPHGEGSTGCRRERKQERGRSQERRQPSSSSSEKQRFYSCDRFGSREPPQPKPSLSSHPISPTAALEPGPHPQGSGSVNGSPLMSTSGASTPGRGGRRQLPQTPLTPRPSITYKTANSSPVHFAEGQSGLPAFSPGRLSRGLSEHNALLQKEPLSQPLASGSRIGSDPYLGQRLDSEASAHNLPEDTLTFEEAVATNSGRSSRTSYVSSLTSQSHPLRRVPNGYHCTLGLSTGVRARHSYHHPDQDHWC
# [3] = test system: recombinant N-type (Cav2.2) VGCCs α1B-b/β3; type: cell-based, rat
# [4] = target: recombinant Cav2.3 α1E (R-type) channels (α/α2δ1/β3) (Rattus norvegicus, UniProt Q07652); type: cell-based
# Chain of recombinant Cav2.3 α1E (R-type) channels (α/α2δ1/β3) (Q07652 whole entry, looked up): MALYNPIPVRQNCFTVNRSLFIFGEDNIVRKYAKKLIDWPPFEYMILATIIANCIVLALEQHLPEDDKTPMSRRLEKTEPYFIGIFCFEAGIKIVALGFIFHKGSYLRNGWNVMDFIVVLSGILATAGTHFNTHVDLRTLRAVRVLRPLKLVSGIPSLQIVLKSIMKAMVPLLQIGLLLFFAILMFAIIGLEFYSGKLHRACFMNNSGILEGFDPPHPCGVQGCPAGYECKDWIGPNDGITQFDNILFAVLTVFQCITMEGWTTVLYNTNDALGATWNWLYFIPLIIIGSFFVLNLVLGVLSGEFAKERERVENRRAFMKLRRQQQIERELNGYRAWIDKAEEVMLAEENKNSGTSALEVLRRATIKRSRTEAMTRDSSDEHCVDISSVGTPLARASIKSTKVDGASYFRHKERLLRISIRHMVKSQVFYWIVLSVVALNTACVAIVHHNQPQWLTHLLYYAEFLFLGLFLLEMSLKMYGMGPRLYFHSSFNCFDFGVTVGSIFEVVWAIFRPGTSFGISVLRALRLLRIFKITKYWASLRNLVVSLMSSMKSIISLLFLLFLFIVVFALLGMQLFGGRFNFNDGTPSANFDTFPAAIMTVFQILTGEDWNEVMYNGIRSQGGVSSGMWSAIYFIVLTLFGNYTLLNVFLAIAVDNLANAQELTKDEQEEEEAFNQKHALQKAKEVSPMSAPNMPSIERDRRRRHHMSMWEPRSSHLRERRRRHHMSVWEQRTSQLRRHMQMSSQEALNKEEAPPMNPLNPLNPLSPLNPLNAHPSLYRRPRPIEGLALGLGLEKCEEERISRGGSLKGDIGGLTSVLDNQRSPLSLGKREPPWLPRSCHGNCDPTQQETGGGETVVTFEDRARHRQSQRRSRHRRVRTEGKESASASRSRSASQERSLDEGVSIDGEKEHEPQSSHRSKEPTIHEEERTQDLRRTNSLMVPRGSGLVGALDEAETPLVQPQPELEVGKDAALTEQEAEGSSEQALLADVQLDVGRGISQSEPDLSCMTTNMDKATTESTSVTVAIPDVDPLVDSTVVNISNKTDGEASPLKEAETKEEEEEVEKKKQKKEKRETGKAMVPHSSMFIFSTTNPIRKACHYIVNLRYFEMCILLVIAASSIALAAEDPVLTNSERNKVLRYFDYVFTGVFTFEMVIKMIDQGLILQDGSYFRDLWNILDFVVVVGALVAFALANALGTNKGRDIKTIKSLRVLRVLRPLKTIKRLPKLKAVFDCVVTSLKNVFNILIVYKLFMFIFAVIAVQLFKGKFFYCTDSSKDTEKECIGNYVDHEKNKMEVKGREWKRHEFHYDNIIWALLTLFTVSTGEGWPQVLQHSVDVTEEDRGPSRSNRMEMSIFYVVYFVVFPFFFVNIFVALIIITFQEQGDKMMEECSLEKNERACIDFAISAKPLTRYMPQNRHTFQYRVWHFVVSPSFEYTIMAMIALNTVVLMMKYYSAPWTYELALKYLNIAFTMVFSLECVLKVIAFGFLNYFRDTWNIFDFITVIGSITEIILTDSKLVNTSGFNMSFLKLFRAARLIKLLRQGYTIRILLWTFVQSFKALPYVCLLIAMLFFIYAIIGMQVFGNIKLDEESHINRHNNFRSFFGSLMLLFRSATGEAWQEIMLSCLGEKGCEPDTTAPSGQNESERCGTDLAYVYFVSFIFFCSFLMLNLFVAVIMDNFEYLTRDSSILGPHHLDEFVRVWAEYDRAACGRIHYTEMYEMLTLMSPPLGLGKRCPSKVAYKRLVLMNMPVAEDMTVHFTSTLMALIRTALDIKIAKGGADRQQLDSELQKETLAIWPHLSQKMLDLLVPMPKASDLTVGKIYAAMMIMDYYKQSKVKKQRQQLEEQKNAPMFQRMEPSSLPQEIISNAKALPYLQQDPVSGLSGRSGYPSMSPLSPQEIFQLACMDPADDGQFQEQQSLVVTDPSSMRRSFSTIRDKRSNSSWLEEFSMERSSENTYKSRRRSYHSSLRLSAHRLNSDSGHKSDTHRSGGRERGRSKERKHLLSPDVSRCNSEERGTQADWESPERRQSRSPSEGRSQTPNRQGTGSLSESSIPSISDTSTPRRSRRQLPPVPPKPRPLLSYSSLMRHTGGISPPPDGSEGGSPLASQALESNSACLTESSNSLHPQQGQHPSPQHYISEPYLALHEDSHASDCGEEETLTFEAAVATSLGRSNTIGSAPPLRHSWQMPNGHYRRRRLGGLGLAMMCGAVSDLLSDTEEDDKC
# [5] = target: recombinant Cav1.3 α1D (L-type) channels (α/α2δ1/β3) (Rattus norvegicus, UniProt P27732); type: cell-based
# [6] = target: recombinant Cav2.1 α1A (P/Q-type) channels (α/α2δ1/β3) (Oryctolagus cuniculus, UniProt P27884); experiment: cell-based; set-up: species or system rabbit; details: read-out: inhibition of Cav2.1 channels
SMILES,effect on Cav1.2 channels [1],Hill slope [2],inhibition of depolarization-activated Ba2+ currents (IBa) [2],IC50 [3],effect on Cav2.3 channels [4],effect on Cav1.3 channels [5],inhibition at 3 µM [6],IC50 [2],time constant of block (τon) [2]
"CC(C)C[C@@H]1NC(=O)[C@H](CCCNC(=N)N)NC(=O)[C@@H]2CSSC[C@@H]3NC(=O)[C@H](CO)NC(=O)[C@H](C)NC(=O)CNC(=O)[C@H](CCCCN)NC(=O)CNC(=O)[C@H](CCCCN)NC(=O)[C@@H](N)CSSC[C@H](NC(=O)[C@H](CSSC[C@@H](C(N)=O)NC(=O)[C@H](CCCNC(=N)N)NC(=O)CNC1=O)NC(=O)[C@H](CC(=O)O)NC(=O)[C@H](Cc1ccc(O)cc1)NC(=O)[C@H](CO)NC(=O)[C@H]([C@@H](C)O)NC(=O)[C@H](CCCNC(=N)N)NC(=O)[C@H](CCCNC(=N)N)NC3=O)C(=O)N[C@@H]([C@@H](C)O)C(=O)NCC(=O)N[C@@H](CO)C(=O)N2 [CVIF] (HELM PEPTIDE1{C.K.G.K.G.A.S.C.R.R.T.S.Y.D.C.C.T.G.S.C.R.L.G.R.C.[am]}$PEPTIDE1,PEPTIDE1,1:R3-16:R3|PEPTIDE1,PEPTIDE1,8:R3-20:R3|PEPTIDE1,PEPTIDE1,15:R3-25:R3$$$V2.0)",neither peptide had any effect,0.51±0.04,potently inhibited,0.1 ± 0.07 nM,neither peptide had any effect,neither peptide had any effect,< 10%,,
"C[C@@H]1NC(=O)CNC(=O)[C@H](CCCCN)NC(=O)CNC(=O)[C@H](CCCCN)NC(=O)[C@@H](N)CSSC[C@@H]2NC(=O)[C@@H]3CSSC[C@@H](C(N)=O)NC(=O)[C@H](CCCNC(=N)N)NC(=O)CNC(=O)[C@H](CO)NC(=O)[C@H](CCCNC(=N)N)NC(=O)[C@H](CSSC[C@H](NC(=O)[C@H](CO)NC1=O)C(=O)N[C@@H](CCCNC(=N)N)C(=O)N[C@@H](CCCNC(=N)N)C(=O)N[C@@H]([C@@H](C)O)C(=O)N[C@@H](CO)C(=O)N[C@@H](Cc1ccc(O)cc1)C(=O)N[C@@H](CC(=O)O)C(=O)N3)NC(=O)[C@H](CO)NC(=O)CNC(=O)[C@H]([C@@H](C)O)NC2=O [CVIE, CKGKGASCRRTSYDCCTGSCRSGRC]",neither peptide had any effect,0.45±0.03,potently inhibited,0.12 ± 0.05 nM,neither peptide had any effect,neither peptide had any effect,< 10%,2.6 ± 0.5 nM,31.5 ± 2.4 s and 38.5 ± 2.8 s
"CSCC[C@@H]1NC(=O)[C@H]([C@@H](C)O)NC(=O)[C@H](CCCCN)NC(=O)[C@H](CCCNC(=N)N)NC(=O)[C@@H]2CSSC[C@@H]3NC(=O)[C@H](CO)NC(=O)CNC(=O)[C@H](CCCNC(=N)N)NC(=O)[C@H](CSSC[C@H](N)C(=O)N[C@@H](CCCCN)C(=O)NCC(=O)N[C@@H](CCCCN)C(=O)NCC(=O)N[C@@H](C)C(=O)N[C@@H](CO)C(=O)N2)NC(=O)[C@H](CSSC[C@@H](C(N)=O)NC(=O)[C@H](CCCNC(=N)N)NC(=O)CNC(=O)[C@H](CO)NC(=O)[C@H](CCCNC(=N)N)NC3=O)NC(=O)[C@H](CC(=O)O)NC(=O)[C@H](Cc2ccc(O)cc2)NC1=O [CVIB, reference compound] (HELM PEPTIDE1{C.K.G.K.G.A.S.C.R.K.T.M.Y.D.C.C.R.G.S.C.R.S.G.R.C.[am]}$PEPTIDE1,PEPTIDE1,1:R3-16:R3|PEPTIDE1,PEPTIDE1,8:R3-20:R3|PEPTIDE1,PEPTIDE1,15:R3-25:R3$$$V2.0)",,0.47±0.03,,1.6 ± 0.6 nM,,,,12 ± 2.3 nM,
